How the values were obtained:
[1] = molecular target: Squalene monooxygenase (Sus scrofa); assay: The compound was tested for its inhibitory activity against pig Squalene epoxidase at pH 8.8
[2] = molecular target: Squalene monooxygenase (Sus scrofa); assay: The compound was tested for its inhibitory activity against pig Squalene epoxidase at pH 7.4

IC50 [1]: 32 µM
IC50 [2]: 109 µM
Compound: CC(C)=CCC/C(=C/CC/C(C)=C/CC/C=C(\C)CC/C=C(\C)CCC=C(C)C)CN [6,11,15,19-tetramethyl-2-(4-methyl-3-pentenyl)-(2Z,6E,10E,14E)-2,6,10,14,18-icosapentaen-1-amine]

Source: BindingDB's records for doi:10.1016/0960-894X(95)00058-2 (1995)
